Laboratory results published in patent US20190011433A1, “CELL CO-CULTURE SYSTEMS AND USES THEREOF” (Dana-Farber Cancer Institute, Inc., priority 2007, published 2019).
“Also recorded” adds a separate entry of the source.

Tests used:
K562-luc leukemia cells = test: CS-BLI drug sensitivity of K562-luc leukemia cells in presence vs absence of HS-5 BMSCs; type: cell-based; settings: presence vs absence of HS-5 BMSCs (10,000 per well)
Excerpt: (§1) Applicants expanded the application of in vitro compartment-specific bioluminescence imaging assays beyond the MM cells to other tumor models, namely a few leukemic cell lines. Applicants specifically tested luciferase-expressing K562-luc-neo and KU812F-luc-neo leukemic cells against standard anti-leukemia agents, including AraC and Doxo, in the presence vs. absence of HS-5 stromal cells (FIG. 7A and FIG. 7B).

A375-luc-neo cells = test: CS-BLI drug sensitivity of A375-luc-neo cells alone or with HS-5 BMSCs; type: cell-based; settings: A375-luc-neo alone or with HS-5 BMSCs (10,000/well), 48 hrs
Experimental: (§2) MDA-MB-231met-luc-neo (FIG. 18A, FIG. 18B), A375-luc-neo (FIG. 18C, FIG. 18D) and FRO-luc-neo (FIG. 18E, FIG. 18F) cells were plated either alone or mixed with HS-5 BMSCs (10,000 /well) and treated the following day. The cultures of tumor cells and their co-cultures with BMSCs were incubated for an additional 48 hrs.

[1] = system: MM-1R-GFP-luc myeloma cells; test: CS-BLI drug sensitivity of MM-1R-GFP-luc cells in presence vs absence of stromal cells; settings: MM-1R-GFP-luc (Dex-resistant), presence vs absence of HS-5 BMSCs (10,000 per well)
[2] = system: MM-1S-GFP-luc myeloma cells; test: CS-BLI drug sensitivity of MM-1S-GFP-luc cells in presence vs absence of stromal cells; type: cell-based, human
Experimental: Luciferin (7.5 mg/mL; Xenogen Corp, Alameda, Calif.) was added at the volume stated in each experiment. Cell viability and the precise cell counts were established by Trypan blue exclusion assay immediately before plating of the cells. Compartment-specific bioluminescence emitted by individual wells of these plates was measured with two different bioluminescence imaging modalities, namely a Xenogen IVIS® Imaging System (FIG. 1A and FIG. 1B) and a standard luminometer plate reader—Luminoskan luminometer (Labsystems, MA) (FIG. 1C). The results with each method were analyzed for the linearity of the bioluminescent signal vs. cell number using the Living Image® software (Xenogen Corp, Alameda Calif.).

[3] = system: MDA-MB-231met-luc-neo cells; test: CS-BLI drug sensitivity of MDA-MB-231met-luc-neo cells alone or with HS-5 BMSCs; type: cell-based; settings: MDA-MB-231met-luc-neo alone or with HS-5 BMSCs (10,000/well), 48 hrs
Experimental: as §2

[4] = system: MM-1S-GFP-luc myeloma cells; test: Flow cytometry (Apo2.7) drug sensitivity testing in tumor-stromal co-culture; type: cell-based, human; settings: Doxo 250 ng/mL, 48 hrs
Experimental: Applicants also evaluated the anti-tumor effects of these drugs in the presence of stromal cells, and compared the results obtained with in vitro compartment-specific bioluminescence vs. flow cytometric evaluation of drug-induced cell death. Specifically, luciferase-expressing MM cells were treated in vitro with Doxo (250 ng/mL) or vehicle, in the absence vs. presence of bone marrow stromal cells (BMSCs). For flow cytometry-based drug sensitivity testing in tumor-stromal co-culture, tumor cell viability in the presence vs. absence of stromal cells was evaluated by flow cytometry. Specifically, after incubation with drug or vehicle, MM-1S-GFP-luc myeloma cells were stained with Apo2.7 (BD Biosciences) to detect apoptotic cells. GFP positive myeloma cells were gated to distinguish them from GFP negative stromal cells in the co-cultures. The ratio of Apo2.7 positive cells in the GFP^+ compartment of the drug-treated condition vs. the vehicle-treated condition provided a quantified expression of viable cells in response to drug treatment. […] These flow cytometric results were consistent with results obtained with CS-BLI based applications as described in Example III.

[5] = system: KU812F-luc leukemia cells; test: CS-BLI drug sensitivity of KU812F-luc leukemia cells in presence vs absence of HS-5 BMSCs; type: cell-based; settings: presence vs absence of HS-5 BMSCs (10,000 per well)
Excerpt: In another set of experiments, Applicants tested and observed similar protective/sensitization effect of stroma cell on KU812F-luc cells on various drugs (data not shown).
as §1

FRO-luc-neo cells = test: CS-BLI drug sensitivity of FRO-luc-neo cells alone or with HS-5 BMSCs; type: cell-based; settings: FRO-luc-neo alone or with HS-5 BMSCs (10,000/well), 48 hrs
Experimental: as §2

## COc1cccc2c1C(=O)c1c(O)c3c(c(O)c1C2=O)C[C@@](O)(C(=O)CO)C[C@@H]3O[C@H]1C[C@H](N)[C@H](O)[C@H](C)O1 [Doxo, Doxorubicin]
K562-luc leukemia cells
  effect of BMSC co-culture on tumor cell response to drug (protection): do not confer protection
A375-luc-neo cells
  effect of BMSC co-culture on tumor cell response to drug (protection): no protection
[1]
  effect of BMSC co-culture on tumor cell response to drug (protection): attenuated the responses; also recorded: confer protection
[2]; presence vs absence of HS-5 BMSCs (10,000 per well)
  effect of BMSC co-culture on tumor cell response to drug (protection): attenuated the responses; also recorded: conferred protection; also recorded: confer protection
[2]; presence vs absence of KM101, KM103, KM104, KM105 BMSC lines, Doxo 0-250 ng/mL
  effect of BMSC co-culture on tumor cell response to drug (protection): protective effects; also recorded: conferred protection
[3]
  effect of BMSC co-culture on tumor cell response to drug (protection): modest protection
[4]
  Apo2.7 expression in GFP+ myeloma cells, co-culture with HS-5 vs absence of stroma: decreased expression of Apo2.7
[5]
  effect of BMSC co-culture on tumor cell response to drug (protection): did not affect their response
FRO-luc-neo cells
  effect of BMSC co-culture on tumor cell response to drug (protection): modest protection
